Values of other authors, collected in US20200397720A1, “METHOD AND FORMULATION FOR TREATMENT OF WOUNDS BY NEW TISSUE REGENERATION WITH REDUCED TRAUMA AND SCAR TISSUE FORMATION” (priority 2019, published 2020).

System: inflammatory cytokines, including IL-6 and TNF-α
Details: high fat diet-induced atherosclerosis in rabbits

CC1=C(/C=C/C(C)=C/C=C/C(C)=C/C(=O)O)C(C)(C)CCC1 [ATRA, all-trans retinoic acid]
effect on inflammatory cytokines, including IL-6 and TNF-α: lowering inflammatory cytokines
